Assay results published in patent publication US20110321190A1, “METHOD OF POSITIVE PLANT SELECTION USING SORBITOL DEHYDROGENASE” (Metabolix, Inc., priority 2009, published 2011).
Entries after “also recorded” stand apart in the source; their conditions may differ.

Legend:
[1] = test system: switchgrass (Panicum virgatum L. cv. 'Alamo') callus cultures; assay: Growth of switchgrass callus cultures in the presence of different carbon sources; assay type: cell-based; conditions: wild-type callus; sole carbon source: maltose 83.3 mM, fructose 111 mM, sorbitol 41.2 mM; 4 weeks dark incubation at 28° C.
From the text: The in vitro response of various plants grown on medium supplemented with different sugar sources was investigated. For these purposes, switchgrass (Panicum virgatum L. cv. ‘Alamo’) was chosen as a representative monocot species. Highly embryogenic callus cultures of switchgrass were initiated from mature caryopses according to established procedures (Denchev, P. D. and B. V. Conger, Crop Sci., 34: 1623-1627 (1994)) and transferred to callus multiplication media [media consists of MS basal salts (product#MS002, Caisson Laboratories, North Logan, Utah, USA), 6-benzylaminopurine (BAP, […]), 2,4-dichlorophenoxyacetic acid (2,4-D, […]), and agar (8 g/L agar), pH 5.6]. The media was supplemented with carbon sources as indicated in the following concentrations: maltose (83.3 mM), fructose (111 mM), sorbitol (41.2 mM), or no carbon source. After 4 weeks of dark incubation at 28° C., the callus multiplication ability in the presence of various carbon supplements or no carbon supplement was visually examined.

tobacco leaf pieces = assay: Callus induction and shoot regeneration from tobacco leaves on different sugars as sole carbon source; assay type: cell-based; conditions: sole carbon source: sorbitol 16 g/L, fructose 15.8 g/L; 4 weeks in tissue culture
Method: To test whether sorbitol dehydrogenase can be used as a positive selection marker in tobacco, pieces of tobacco leaves were tested on media containing different sugars as a sole carbon source.
Sterile grown tobacco leaves were cut into pieces of approximately 0.5-1 cm^2. Leaf pieces were transferred onto MS media containing minimal organics (MSP002 from Caisson Laboratories, North Logan, Utah, USA), 1 mg/L 6-BAP (6-benzylaminopurine) in 1N NaOH, 100 ug/L NAA (α-naphtahalene acetic acid), and the following carbon sources: no sugar; sorbitol, (16 g/L); fructose, (15.8 g/L); sucrose (30 g/L). Explants were maintained in tissue culture for 4 weeks with the following light cycle: 16 hrs in the light at 23° C.; 8 hrs in the dark at 20° C.; relative humidity approximately 45%.

[2] = test system: Arabidopsis thaliana leaf and root explants; assay: Calli growth of Arabidopsis thaliana leaf and root explants in the presence of different carbon sources; assay type: cell-based; conditions: sole carbon source as in Example 1; 4 weeks dark incubation at 25° C.
Method: Growth of cultures of Arabidopsis thaliana, a model dicot species, were also examined to determine if they were able to grow in the presence of sorbitol as a sole carbon source. Leaf and root explants were excised from sterile seedlings of Arabidopsis and were plated on medium containing maltose, fructose, or sorbitol, or no carbon supplement as described in Example 1.

tomato cells = conditions: examples of the cited Trulson patents; cited from earlier work
[3] = test system: switchgrass embryogenic callus cultures; assay: Agrobacterium-mediated transformation of switchgrass with pMBXS323 and selection on sorbitol as sole carbon source; assay type: cell-based; conditions: medium with sorbitol as sole carbon source; 4-6 wks in the dark at 28° C.
Method: Agrobacterium-mediated transformation of switchgrass was performed as previously described (Somleva et al., 2002; Somleva, 2006). Highly embryogenic callus cultures were co-cultured with Agrobacterium tumifaciens strain AGL1 (Lazo et al., 1991) harboring pMBXS323 (FIG. 2) for three days in the dark at 28° C. The Agrobacterium treated cultures were incubated on a medium without selection for three to five days and then were transferred to medium containing sorbitol as the sole carbon source. […] These portions were carefully separated from the main callus and transferred to fresh selection medium for further callus proliferation. Upon transfer to regeneration medium containing sorbitol as the sole carbon source, these calli sectors developed green pigmentation within 3-5 days and eventually formed green adventitious shoots and emblings (somatic embryo derived plantlets) (FIGS. 3a-b).

Molecule	callus multiplication ability (visually examined) [1]	callus growth of root and leaf cultures [2]	growth of tomato cells on the carbon source (tomato cells)	further results
O=C(CO)[C@@H](O)[C@H](O)[C@H](O)CO [fructose]	able to proliferate normally and displayed considerable callus growth	considerable callus growth		callus generation / induction (tobacco leaf pieces): Callus induction; shoot regeneration (tobacco leaf pieces): shoot regeneration
OC[C@@H](O)[C@@H](O)[C@H](O)[C@@H](O)CO [sorbitol]	remained dormant with minimal or no incremental growth; also recorded: reduced growth	little to no growth	do not grow	callus generation / induction (tobacco leaf pieces): Inhibited callus generation; shoot regeneration (tobacco leaf pieces): inhibited shoot regeneration
OC[C@@H](O)[C@@H](O)[C@H](O)[C@H](O)CO [mannitol]			do not grow	
OC[C@H]1O[C@H](O[C@H]2[C@H](O)[C@@H](O)[C@H](O)O[C@@H]2CO)[C@H](O)[C@@H](O)[C@@H]1O [maltose]	able to proliferate normally and displayed considerable callus growth	considerable callus growth		
OC[C@H]1O[C@H](O[C@H]2O[C@H](CO)[C@@H](O)[C@H](O)[C@H]2O)[C@H](O)[C@@H](O)[C@@H]1O [trehalose]			do not grow	
OC[C@H]1O[C@@H](O[C@H]2[C@H](O)[C@@H](O)C(O)O[C@@H]2CO)[C@H](O)[C@@H](O)[C@H]1O (stereo partly shown) [lactose]			do not grow	
OCc1ccccc1O[C@@H]1O[C@H](CO)[C@@H](O)[C@H](O)[C@H]1O [salicin]			do not grow	
pMBXS323: pCAMBIA3300-derived plant transformation plasmid with CaMV35S promoter, hsp70 intron and sdh gene from Pseudomonas sp. KS-E1806				calli clumps showing formation of new growth [3]: 30-50%
